In publication PMC7914367, “Dual-ligand supramolecular nanofibers inspired by the renin-angiotensin system for the targeting and synergistic therapy of myocardial infarction” (Theranostics, 2021):
Square brackets hold non-standard residues; d marks the D form. Ends that are not written are not given here. Peptide text beside a SMILES is read from it. * marks the point of attachment. NBD = O=[N+]([O-])c1ccc(*)c2nonc12; βAla = NCCC(=O)O

Key:
AT1R = target: T1, AT1R (Rattus norvegicus, UniProt P25095); assay: Fluorescent co-localization with AT1R in NRCMs; assay type: cell-based; details: OGD-conditioned NRCMs, 50 μM, 2 h, microscopy
T1 construct: NRCMs under OGD conditions expressed high levels of AT1R (red fluorescence); endogenous in cells; host or cells: primary neonatal rat cardiomyocytes (NRCMs) from Sprague-Dawley rats, normoxia or OGD
T1 sequence (P25095 1-359): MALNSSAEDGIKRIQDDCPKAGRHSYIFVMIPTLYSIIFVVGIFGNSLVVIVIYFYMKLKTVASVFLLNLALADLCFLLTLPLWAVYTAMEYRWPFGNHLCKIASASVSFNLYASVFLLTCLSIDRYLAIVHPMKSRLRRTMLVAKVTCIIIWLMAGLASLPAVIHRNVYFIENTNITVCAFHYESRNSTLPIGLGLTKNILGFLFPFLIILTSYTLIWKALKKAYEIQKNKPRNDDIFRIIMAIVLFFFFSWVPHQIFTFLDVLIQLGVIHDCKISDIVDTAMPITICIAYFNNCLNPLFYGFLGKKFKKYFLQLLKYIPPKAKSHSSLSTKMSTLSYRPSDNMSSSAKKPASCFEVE
Protocol: Next, the cells were blocked by incubating with goat serum for 30 min and incubated with primary antibodies overnight at 4 °C. The primary antibodies used here included anti-AT1R (1:200 dilution), anti-cTNT (1:500 dilution), anti-P65 (1:800 dilution), and anti‐α-SMA (1:400 dilution). The cells were incubated with FITC-labeled Goat Anti-Rabbit IgG (1:200 dilution) or Cy3-labeled Goat Anti-Mouse IgG (1:200 dilution) for 2 h at room temperature. The cells were counterstained with DAPI and imaged using a fluorescence microscope (Leica Dmi8, Germany).
(50 μM), SAA1-7+Tel (50 μM) and NBDAng1-7+Tel (50 μM) for further 2 h. PBS was then used to wash cells for three times and 4% paraformaldehyde was added to fix cells for 20 min at room temperature. After being blocked with goat serum for 30 min, rabbit anti-AT1R primary antibody (1:200 dilution) was added to incubat e wit h NRCMs overnight at 4 ℃. After being washed with PBS for three times, Cy3-labeled Goat Anti-Rabbit IgG (1:200 solut ion) was added and incubated with cells for 2 h at room temperature. Cells were then stained with DAPI. The fluorescence i mages were obtained by the fluorescence microscope (λexc =532 nm for AT1R, λexc = 488 nm for NBD, λexc = 405 nm for DAPI).

[1] = TEM of nanofibers (diameter); assay type: physicochemical; details: SAA1-7 hydrogel, 1.0 wt% in PBS pH 7.4, heat-cooling
Text: To construct the dual-ligand supramolecular nanofibers, we designed and synthesized a peptide molecule NBD-^DF^DF^DY^DE^DEG-DRVYIHP (SAA1-7, Figure 1A & Figure S1) as a hydrogelator. […] SAA1-7 could self-assemble into a transparent hydrogel in PBS (pH 7.4) at a concentration of 1.0 wt% via a simple heat-cooling process, in which we observed uniform nanofibers with diameters of 7.6 ± 1.8 nm using transmission electron microscopy (TEM) (Figure S2). The drug loading efficiency and the stability of nanocarriers are attributed to the affinity between amphiphilic peptides and hydrophobic molecules. […] We measured the encapsulation efficiency (EE) and drug loading (DL) of TDCNfs. […]
Subsequently, we studied the co-assembly behaviors and the underlying mechanism of TDCNfs. […] We monitored and compared the nanostructures in the process of hydrogelation at different time points by TEM. […]
(§1) DL and EE were calculated using the following equation. […]
dissolved in PBS (5 mL) and th e pH was adjusted to 7.4. […] Next, 500 μL of the sample was removed at each time point and the rel ease of Tel was analyzed, while the remained SAA1-7 in the sample was analyzed using LC-MS […]
(§2) The CMC values were determined by dynamic light scattering (DLS) and the light scattering intensity was recorded for each concentration. […]

[2] = Critical micelle concentration by dynamic light scattering; assay type: physicochemical; details: gradient concentrations in MilliQ water
Protocol: The details are given in Supporting Information.
S1.3 Drug Loading and Encapsulation Efficiency
Tel (dissolved in DMSO) was mixed with SAA1-7 (dissolved in PBS) (pH 7.4, 10 mg/mL) at molar ratios of 15%, 30%, 50%, and 70% (n = 3). After preparation, the mixtures were analy zed using LC-MS (LCMS-20AD, Shimadzu) after lyo philization.
as §1
dissolved in PBS (5 mL) and th e pH was adjusted to 7.4. Proteinase K was added at a concentration of 0.138 mg/mL and the reaction m ixtures were incubated at 37 °C for 24 h. Next, 500 μL of the sample was removed at each time point and the rel ease of Tel was analyzed, while the remained SAA1-7 in the sample was analyzed using LC-MS […]
S1.4 Transmission electron microscopy
The SAA1-7 with 50% molar ratio of Tel was incubated at 40 ℃ for 0 min, 30 min, 60 min, and 120 min, respectively. TEM samples in different time points were prepared. […]
were prepared. The sample preparation procedures : 10 µL samples of each were placed on a carbon-coated copper grid and in cubated for 30 seconds to allow the peptide nanostructures to adhere to the substrate, then rinsed twice with ultrapure water. […]
as §2

[3] = target: T2, recombinant human MasR (rhMasR) (Homo sapiens, UniProt P04201); assay: Surface plasmon resonance imaging (SPRi) binding; details: rhMasR immobilized on CM5 chip, analytes 0.001-10 μM in PBS
T2 construct: purchased Abnova H00004142-G01
T2 sequence (P04201 1-325): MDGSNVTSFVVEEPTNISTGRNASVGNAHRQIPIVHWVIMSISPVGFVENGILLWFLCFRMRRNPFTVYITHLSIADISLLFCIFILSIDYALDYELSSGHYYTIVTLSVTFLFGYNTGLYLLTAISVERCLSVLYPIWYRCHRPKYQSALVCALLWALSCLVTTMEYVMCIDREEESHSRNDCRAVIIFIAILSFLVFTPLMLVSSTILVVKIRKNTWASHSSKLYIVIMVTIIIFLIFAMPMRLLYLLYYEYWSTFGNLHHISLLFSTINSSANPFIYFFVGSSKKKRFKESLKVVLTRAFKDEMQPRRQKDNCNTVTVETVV

MI mouse model [4] = assay: In vivo mechanism: caspase-3 IHC, α-SMA immunofluorescence, type I collagen, TGF-β1, serum cytokines; design: species or system C57BL/6 mice; details: MI mice, 4 weeks post-treatment, immunofluorescence, n = 5
Protocol: Frozen sections were prepared in vivo, as described previously. For drugs distribution, near-infrared laser imager (GE Amersham Typhoon, Sweden) was used to capture full cross section of hearts. For co-localization experiments, the mice hearts were dissected 24 h post-injection of drugs. Anti-AT1R primary antibody (1:200 dilution) was used as the primary antibody. For fibrosis investigation, the frozen sections were incubated with primary antibodies against α-SMA (1:400 dilution). The staining signals were visualized using FITC-labeled Goat Anti-Rabbit IgG (1:200 dilution) or Cy3-labeled Goat Anti-Rabbit IgG (1:200 dilution). The sections were counterstained with DAPI and examined under a laser confocal scanning microscope (Leica TCS SP8, Germany).
The heart tissues were fixed in 4% paraformaldehyde, dehydrated in ethanol, cleared in xylene, and embedded in paraffin. The samples were then cut into 6 μm sections on a microtome and deparaffinized. The sections were blocked by incubating with 1% BSA at room temperature for 30 min and then incubated overnight with anti-cleaved caspase-3 (1:700 dilution), anti-AT1R (1:100 dilution), anti-Collagen I (1:200 dilution) at 4 °C. Next, the sections were washed and incubated with secondary antibodies (1:500 dilution) at room temperature. The tissue sections were incubated with diaminobenzidine and counterstained with hematoxylin, dehydrated, and mounted before viewing under a microscope.
The serum and CM were collected at the indicated time points from the different groups of mice. The levels of TNF-α, IL-6, ALT, Cre, and TGF-β1 were measured using ELISA kits according to the manufacturer's protocol. The absorbance was measured at 450 nm using a microplate reader.

MI mouse model [5] = assay: Masson's trichrome staining, infarct size; assay type: in vivo, C57BL/6 mice; details: MI mice, 4 weeks, collagen area/LV area, MI group 36.60%, vehicle 1219.84 μg/kg, n = 5
Protocol: Adult male C57BL/6 mice (20-30 g, 8-10 week) were purchased from the laboratory animal center of Southern Medical University, China. The protocols were approved according to the Zhujiang Hospital of Southern Medical University animal care and use committee guidelines, which conform to the guide for the care and use of laboratory animals published by the US National Institutes of Health (8th edition, 2011). […] Next, 100 µL of different drugs were administered intravenously through tail vein injection every 2 days for 3 weeks, while the mice in the Sham and MI groups were treated with an equal volume of PBS.
The mice were sacrificed at 4 weeks after the induction of MI, and hearts and major organs were harvested and fixed in 4% paraformaldehyde overnight and embedded in paraffin. The hearts were sectioned to 5 µm along the short axis transversely across the infarct zone. The major organs were sectioned to 5 µm along the short axis. Following deparaffinization and dehydration, the samples underwent H&E and Masson's trichrome staining. The sections were observed under a microscope to evaluate the therapeutic effect and safety of the drugs. The collagen and LV areas were measured using the Image-Pro Plus software (version 6.0; Media Cybernetics, Silver Spring, MD, USA). Infarct size (%) was calculated as the ratio of the collagen area to the LV area.

NRCMs = assay: TUNEL staining of OGD NRCMs; assay type: cell-based, rat; details: 10 μM, 2-3 h, OGD group 26.70%, n = 3
[6] = target: T3, recombinant human MasR (Recombinant Human MAS1 protein) (human) (UniProt P04201); assay: SPR; SPR imaging (SPRi, PlexArray HT); rhMasR immobilised on a CM5 sensor chip; Ang1-7, SAA1-7 and TDCNfs diluted in PBS at 0.001 to 10 μM
T3 sequence (P04201 whole entry, looked up): T2 sequence (P04201 1-325)

NBDAng1-7: Ang1-7 endowed with fluorescence by NBD labeling
co-localization with AT1R (AT1R): slightly overlapped signal

CC[C@H](C)[C@H](NC(=O)[C@H](Cc1ccc(O)cc1)NC(=O)[C@@H](NC(=O)[C@H](CCCNC(=N)N)NC(=O)[C@H](CC(=O)O)NC(=O)CNC(=O)[C@@H](CCC(=O)O)NC(=O)[C@@H](CCC(=O)O)NC(=O)[C@@H](Cc1ccc(O)cc1)NC(=O)[C@@H](Cc1ccccc1)NC(=O)[C@@H](Cc1ccccc1)NC(=O)CCNc1ccc([N+](=O)[O-])c2nonc12)C(C)C)C(=O)N[C@@H](Cc1c[nH]cn1)C(=O)N1CCC[C@H]1C(=O)O [SAA1-7, NBD-^DF^DF^DY^DE^DEG-DRVYIHP] ({NBD-βAla}-[dF][dF][dY][dE][dE]GDRVYIHP-OH)
nanofiber diameter (TEM) [1]: 7.6 ± 1.8 nm
critical micelle concentration (CMC) [2]: 21.95 µM
Kd [3]: 12.6 nM
co-localization with AT1R (AT1R): slightly overlapped signal

NBD-DFDFDYDEDEG-YRVIPHD [vehicle]
α-SMA expression in the non-infarcted area (MI mouse model [4]): inhibited to a certain extent
infarct size (MI mouse model [5]): 32.92%
TUNEL-positive NRCMs (NRCMs): 23.5%

CC[C@H](C)[C@H](NC(=O)[C@H](Cc1ccc(O)cc1)NC(=O)[C@@H](NC(=O)[C@H](CCCNC(=N)N)NC(=O)[C@@H](N)CC(=O)O)C(C)C)C(=O)N[C@@H](Cc1c[nH]cn1)C(=O)N1CCC[C@H]1C(=O)O [Ang1-7, DRVYIHP]
Kd [3]: 10.3 nM

B1: angiotensin 1-7 (peptide)
peptide: DRVYIHP
Kd [6]: 10.3 nM
binding value (RU) [6]: 65.1 RU

B2: self-assembly angiotensin 1-7 (NBD-DF-DF-DY-DE-DE-G-DRVYIHP) (peptide)
peptide: {NBD}-[dF][dF][dY][dE][dE]GDRVYIHP
Kd [6]: 12.6 nM
binding value (RU) [6]: 62.3 RU

B3: telmisartan-doped co-assembly nanofibers (peptide)
peptide: {NBD}-[dF][dF][dY][dE][dE]GDRVYIHP
modifications: also: co-assembly nanofibers doped with telmisartan
Kd [6]: 16.5 nM
binding value (RU) [6]: 58.2 RU
